From paper PMC3914206

What was measured:
Type in all cases: binding
Design in all cases: KINOMEscan: ABL1(F317L)-phosphorylated / KINOMEscan: ABL1(H396P)-nonphosphorylated / KINOMEscan: ABL1(H396P)-phosphorylated / KINOMEscan: ABL1(M351T)-phosphorylated / KINOMEscan: ABL1(T315I)-phosphorylated / KINOMEscan: ABL1-nonphosphorylated / KINOMEscan: ABL1-phosphorylated / KINOMEscan: ACVR2A / KINOMEscan: ACVR2B / KINOMEscan: ADCK3 / KINOMEscan: ADCK4 / KINOMEscan: AKT1 / KINOMEscan: AKT3 / KINOMEscan: ALK / KINOMEscan: ARK5 / KINOMEscan: AURKA / KINOMEscan: AURKC / KINOMEscan: BIKE / KINOMEscan: BMPR1A / KINOMEscan: BMPR1B / KINOMEscan: BMX / KINOMEscan: BRK / KINOMEscan: BRSK1 / KINOMEscan: BRSK2 / KINOMEscan: CAMK1 / KINOMEscan: CAMK1D / KINOMEscan: CAMK1G / KINOMEscan: CAMK2A / KINOMEscan: CAMK2B / KINOMEscan: AAK1 / KINOMEscan: CAMK2D / KINOMEscan: CAMK2G / KINOMEscan: ABL1(F317I)-nonphosphorylated / KINOMEscan: ABL1(F317I)-phosphorylated / KINOMEscan: ABL1(F317L)-nonphosphorylated: unit: % Ctrl
panel of 442 kinases [1] = biological target: T1, panel of 442 kinases (Homo sapiens, UniProt Q9H1R3); details: Compound Concentration 10 µM
T1 construct: purchased KINOMEscan
Source text: (§1) We assessed the selectivity of members of this scaffold using the KINOMEscan methodology across a near comprehensive panel of 442 kinases [[18,27]].

panel of 442 kinases [2] = biological target: T2, panel of 442 kinases (Homo sapiens, UniProt P35590); details: kinase TIE1; compound concentration 10 µM
T2 construct: purchased KINOMEscan
Source text: as §1

panel of 442 kinases [3] = biological target: T3, panel of 442 kinases (Homo sapiens, UniProt Q9UQM7); details: Compound Concentration 10 µM
T3 construct: purchased KINOMEscan
Source text: as §1

panel of 442 kinases [4] = biological target: T4, panel of 442 kinases (Homo sapiens, UniProt P0C1S8); details: kinase WEE2; compound concentration 10 µM
T4 construct: purchased KINOMEscan
Source text: as §1

T1 sequence (Q9H1R3 whole entry): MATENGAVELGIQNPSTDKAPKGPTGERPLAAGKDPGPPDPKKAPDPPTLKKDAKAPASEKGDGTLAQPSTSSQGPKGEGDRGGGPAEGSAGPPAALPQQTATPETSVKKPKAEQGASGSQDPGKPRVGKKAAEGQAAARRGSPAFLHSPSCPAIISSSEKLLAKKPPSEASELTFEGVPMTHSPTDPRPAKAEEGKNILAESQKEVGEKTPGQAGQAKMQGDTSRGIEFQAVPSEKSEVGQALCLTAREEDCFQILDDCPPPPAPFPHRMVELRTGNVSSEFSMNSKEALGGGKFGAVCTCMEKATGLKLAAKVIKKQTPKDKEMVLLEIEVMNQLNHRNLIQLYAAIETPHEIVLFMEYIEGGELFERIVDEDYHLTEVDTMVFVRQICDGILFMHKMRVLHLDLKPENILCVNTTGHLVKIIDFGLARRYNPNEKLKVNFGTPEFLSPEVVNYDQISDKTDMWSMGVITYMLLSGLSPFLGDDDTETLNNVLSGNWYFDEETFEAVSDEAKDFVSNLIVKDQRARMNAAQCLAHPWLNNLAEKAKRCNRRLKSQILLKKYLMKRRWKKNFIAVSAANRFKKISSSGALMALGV
T4 sequence (P0C1S8 whole entry): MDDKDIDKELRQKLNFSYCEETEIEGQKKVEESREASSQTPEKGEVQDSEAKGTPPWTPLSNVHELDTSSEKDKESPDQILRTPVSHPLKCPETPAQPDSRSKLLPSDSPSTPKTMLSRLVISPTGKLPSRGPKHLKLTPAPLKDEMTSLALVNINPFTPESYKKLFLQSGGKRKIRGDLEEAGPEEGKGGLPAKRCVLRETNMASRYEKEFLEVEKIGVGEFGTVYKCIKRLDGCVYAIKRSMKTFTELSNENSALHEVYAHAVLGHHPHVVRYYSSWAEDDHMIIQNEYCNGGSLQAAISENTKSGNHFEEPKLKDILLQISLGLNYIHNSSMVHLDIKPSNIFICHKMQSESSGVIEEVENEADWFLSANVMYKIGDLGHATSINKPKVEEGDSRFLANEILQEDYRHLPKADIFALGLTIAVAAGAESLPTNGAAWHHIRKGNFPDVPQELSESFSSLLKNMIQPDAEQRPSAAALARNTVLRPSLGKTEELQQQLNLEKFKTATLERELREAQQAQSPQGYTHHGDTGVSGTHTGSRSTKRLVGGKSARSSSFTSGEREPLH
T2 sequence (P35590 22-1138): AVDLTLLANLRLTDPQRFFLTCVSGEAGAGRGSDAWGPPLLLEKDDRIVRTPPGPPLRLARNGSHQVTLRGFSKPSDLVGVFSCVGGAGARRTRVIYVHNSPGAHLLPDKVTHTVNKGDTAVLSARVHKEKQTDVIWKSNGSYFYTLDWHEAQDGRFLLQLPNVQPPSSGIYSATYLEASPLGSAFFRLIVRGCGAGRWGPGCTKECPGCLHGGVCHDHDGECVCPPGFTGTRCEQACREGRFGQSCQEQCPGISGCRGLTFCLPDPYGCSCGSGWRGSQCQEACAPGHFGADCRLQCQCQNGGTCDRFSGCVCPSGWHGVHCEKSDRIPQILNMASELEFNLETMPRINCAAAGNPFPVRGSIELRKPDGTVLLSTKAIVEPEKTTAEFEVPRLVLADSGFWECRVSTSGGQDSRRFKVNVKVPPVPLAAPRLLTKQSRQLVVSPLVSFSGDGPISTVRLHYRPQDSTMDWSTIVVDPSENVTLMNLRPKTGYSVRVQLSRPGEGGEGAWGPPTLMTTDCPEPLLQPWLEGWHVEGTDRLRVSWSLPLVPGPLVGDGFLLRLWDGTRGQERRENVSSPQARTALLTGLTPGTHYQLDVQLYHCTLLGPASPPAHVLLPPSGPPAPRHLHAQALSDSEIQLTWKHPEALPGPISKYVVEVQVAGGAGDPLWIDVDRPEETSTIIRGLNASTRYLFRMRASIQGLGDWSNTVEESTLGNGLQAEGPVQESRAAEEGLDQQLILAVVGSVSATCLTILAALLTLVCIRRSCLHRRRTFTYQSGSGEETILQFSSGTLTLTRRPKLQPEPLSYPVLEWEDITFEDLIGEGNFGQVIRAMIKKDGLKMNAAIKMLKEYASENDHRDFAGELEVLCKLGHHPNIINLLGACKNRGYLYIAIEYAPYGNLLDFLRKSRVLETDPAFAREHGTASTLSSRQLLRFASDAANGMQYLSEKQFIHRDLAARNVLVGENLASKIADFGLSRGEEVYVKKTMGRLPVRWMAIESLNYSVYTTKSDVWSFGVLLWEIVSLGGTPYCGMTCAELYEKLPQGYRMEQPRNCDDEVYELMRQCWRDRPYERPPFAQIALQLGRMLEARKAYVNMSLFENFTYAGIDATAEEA
T3 sequence (Q9UQM7 whole entry): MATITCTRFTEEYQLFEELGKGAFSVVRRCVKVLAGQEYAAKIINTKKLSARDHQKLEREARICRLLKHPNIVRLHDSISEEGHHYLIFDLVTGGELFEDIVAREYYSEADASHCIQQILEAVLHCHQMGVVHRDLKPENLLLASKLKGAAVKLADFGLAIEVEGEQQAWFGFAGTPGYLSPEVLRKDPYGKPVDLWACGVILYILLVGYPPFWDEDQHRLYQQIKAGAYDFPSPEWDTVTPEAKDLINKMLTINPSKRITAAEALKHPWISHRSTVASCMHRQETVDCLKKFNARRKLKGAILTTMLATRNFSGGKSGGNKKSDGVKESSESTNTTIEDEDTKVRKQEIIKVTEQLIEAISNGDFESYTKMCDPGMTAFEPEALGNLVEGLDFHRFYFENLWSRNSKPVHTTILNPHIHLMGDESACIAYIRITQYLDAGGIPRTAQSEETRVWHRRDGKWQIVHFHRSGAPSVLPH

SMILES | KINOMEscan: MYLK2 (panel of 442 kinases [1]) | % Ctrl, TIE1 (panel of 442 kinases [2]) [% Ctrl] | KINOMEscan: CAMK2A (panel of 442 kinases [3]) | % Ctrl, WEE2 (panel of 442 kinases [4]) [% Ctrl]
COc1cc(C(=O)N2CCC(N3CCN(C)CC3)CC2)ccc1Nc1ncc2c(n1)N(C)c1ccccc1C(=O)N2C [15 (LRRK2-IN-1)] | 98 | 100 | 21 | 100
COc1cc(C(=O)N2CCC(N3CCN(C)CC3)CC2)ccc1Nc1ncc2c(n1)N1CCc3cccc(c31)C(=O)N2C [Compound 24] | 85 | 70 | 44 | 100
COc1cc(C(=O)N2CCC(N3CCN(C)CC3)CC2)ccc1Nc1ncc2c(n1)N(C1CCCC1)c1ccccc1C(=O)N2C [Compound 25, 11-cyclopentyl-2-((2-methoxy-4-(4-(4-methylpiperazin-1-yl)piperidine-1-carbonyl)phenyl)amino)-5-methyl-5H-benzo[e]pyrimido[5,4-b][1,4]diazepin-6(11H)-one] | 100 | 100 | 81 | 100
CCOc1cc(C(=O)N2CCC(N3CCN(C)CC3)CC2)ccc1Nc1ncc2c(n1)N(C1CCCC1)c1ccccc1C(=O)N2C [Compound 26] | 100 | 100 | 100 | 100
